How the values were obtained:
Assay type in all cases: physicochemical
[1] = Specific surface area (SSA) by BET sorptometry
Description: As used herein, the “specific surface area” is the total surface area of the sorafenib particle per unit of sorafenib mass as measured by the Brunauer—Emmett—Teller (“BET”) isotherm (i.e.: the BET SSA). As will be understood by those of skill in the art, the SSA is determined on a per gram basis and takes into account both agglomerated and non-agglomerated sorafenib particles in the composition. The BET specific surface area test procedure is a compendial method included in both the United States Pharmaceopeia and the European Pharmaceopeia.
(§1) Three precipitation runs (approximately 600-700 mg) were conducted on the RC612B precipitation unit, according to the examples provided on the preceding pages. Solvent was the single variable modified between each group of three precipitations. The precipitates were analyzed by laser diffraction to determine PSD, BET sorptometry to determine SSA, SEM to determine habit and support PSD and SSA data, and PXRD to determine crystalline/amorphous form.
SSA determination analyses were conducted on a Quantachrome NOVAtouch™ LX^2 BET Sorptometer or a Porous Materials, Inc., Automated BET Sorptometer BET-202A according to the manufacturer instructions.

[2] = Shake-flask solubility in organic solvent/water mixtures; conditions: for Concentration of Sorafenib Found: 24 hours, 20-25° C.
Description: This method was conducted in acidic media. Development of a discriminating dissolution method at neutral pH (6.8 to 7.4) was pursued, as relevant for potential intra-tumoral delivery of the drug. The addition of organic solvents was used to increase the solubility of the compounds at neutral pH.
Solubility was determined by using a shake-flask method. The drug was added in excess to each solution prepared in duplicate. The vials were placed on a mechanical shaker for 24 hours at 20-25° C. After shaking, solution was removed and filtered through a 0.2 μm PTFE syringe filter and analyzed by UV/Visible spectrophotometry.

[3] = Particle size distribution (PSD) by laser diffraction, Malvern Mastersizer 3000
Description: as §1
PSD analyses were conducted on a Malvern Mastersizer™ 3000 using the Aero S dispersion unit according to the manufacturer instructions.

- SSA ([1]; listed as Raw): 1.02 m^2/g
- SSA ([1]; listed as unprocessed material): 0.88 m^2/g
- Concentration of Sorafenib Found ([2]; Ethanol, water to organic solvent ratio 25/75): 553 µg/mL
- Concentration of Sorafenib Found ([2]; Ethanol, water to organic solvent ratio 50/50): 325 µg/mL
- Concentration of Sorafenib Found ([2]; Methanol, water to organic solvent ratio 25/75): 503 µg/mL
- Concentration of Sorafenib Found ([2]; Methanol, water to organic solvent ratio 50/50): 41.4 µg/mL
- Concentration of Sorafenib Found ([2]; Methanol, water to organic solvent ratio 75/25): 2.45 µg/mL
- Solubility versus organic solvent concentration ([2]; methanol/water and ethanol/water, both solvents): concentration dependent solubility
- PSD: Volume Dv-10 [3]: 12.3 μm
SMILES: CNC(=O)c1cc(Oc2ccc(NC(=O)Nc3ccc(Cl)c(C(F)(F)F)c3)cc2)ccn1 [Sorafenib, 4-(4-((((4-Chloro-3-(trifluoromethyl)phenyl)amino)carbonyl)amino)phenoxy)-N-methyl-2-pyridinecarboxamide]
